27 molecules from patent US20240327417A1, “HETEROCYCLIC COMPOUNDS” (BeiGene Switzerland GmbH, priority 2021, published 2024) can be followed below.

Experiment [1] deals with T1, Full length DGKα (D21-10BG, SignalChem) (Homo sapiens, UniProt P23743).
T1 construct: Full length DGKα (D21-10BG, SignalChem); purchased SignalChem D21-10BG
Briefly: Biochemical DGK IC50 assay (ADP-Glo, lipid micelle substrate), DGKα. The conditions noted are these: 7.5 nM enzyme, 140 μM ATP, 80 μM DAG, 1 hour preincubation, 1 hour reaction, room temperature, read-out: IC50s for DGKα. As for the experimental part:
(§1) Enzymatic reactions of DGKζ, DGKα and DGKδ were performed using ADP-Glo assay with lipid micelle substrate. […] Full length DGKα (D21-10BG, SignalChem) and full length DGKδ (D23-10G, SignalChem) were purchased. Lipid micelle was prepared by dissolving DAG (Sigma, 317505-10MG) and PS (Sigma, P7769-100MG) with chloroform which was firtherly removed by rotary evaporation. The obtained residue was resuspended in buffer containing 25 mM HEPES pH 7.0, 0.5 mM EDTA and 160 mM Octyl β-D glucopyranoside by vigorous mixing and ultrasonic (IID, Scientz).
(§2) The inhibition activities testing for the compound disclosed herein were carried out at room temperature in assay buffer containing 50 mM HEPES, 10 mM MgCl2, 0.01% BSA, 0.1 mM Na3VO4, 0.005% Tween-20 and 0.01 mM CaCl2. Compounds in DMSO were dispensed into wells of a black 384 well plate (Corning 4514) using D300e digital dispenser (Tecan). The ranges of compounds final concentration were 1.55˜10000 nM or 23.3˜150000 nM. 3 μL 2× enzyme solution was added to wells. […] After 1 hour reaction, 5 μL ADP-Glo reagent (Promga V9101) was added and incubated for 40 minutes. 10 μL Kinase Detection reagent was added and incubated for 30 minutes. Luminescence was measured on a microplate reader (PHERAstar FSX, BMG labtech). The IC50s are calculated based on inhibition of enzyme activity in the presence of increasing concentrations of compounds.

In experiment [2] the target is T2, Full length DGKζ (in-house protein M1-V929) (Homo sapiens, UniProt Q13574).
T2 construct: His (N); TEV cleavage site (N); made in house; host or cells: Sf9 insect cells (baculovirus, Bac-to-Bac)
T2 sequence (Q13574 1-929 isoform Q13574-4): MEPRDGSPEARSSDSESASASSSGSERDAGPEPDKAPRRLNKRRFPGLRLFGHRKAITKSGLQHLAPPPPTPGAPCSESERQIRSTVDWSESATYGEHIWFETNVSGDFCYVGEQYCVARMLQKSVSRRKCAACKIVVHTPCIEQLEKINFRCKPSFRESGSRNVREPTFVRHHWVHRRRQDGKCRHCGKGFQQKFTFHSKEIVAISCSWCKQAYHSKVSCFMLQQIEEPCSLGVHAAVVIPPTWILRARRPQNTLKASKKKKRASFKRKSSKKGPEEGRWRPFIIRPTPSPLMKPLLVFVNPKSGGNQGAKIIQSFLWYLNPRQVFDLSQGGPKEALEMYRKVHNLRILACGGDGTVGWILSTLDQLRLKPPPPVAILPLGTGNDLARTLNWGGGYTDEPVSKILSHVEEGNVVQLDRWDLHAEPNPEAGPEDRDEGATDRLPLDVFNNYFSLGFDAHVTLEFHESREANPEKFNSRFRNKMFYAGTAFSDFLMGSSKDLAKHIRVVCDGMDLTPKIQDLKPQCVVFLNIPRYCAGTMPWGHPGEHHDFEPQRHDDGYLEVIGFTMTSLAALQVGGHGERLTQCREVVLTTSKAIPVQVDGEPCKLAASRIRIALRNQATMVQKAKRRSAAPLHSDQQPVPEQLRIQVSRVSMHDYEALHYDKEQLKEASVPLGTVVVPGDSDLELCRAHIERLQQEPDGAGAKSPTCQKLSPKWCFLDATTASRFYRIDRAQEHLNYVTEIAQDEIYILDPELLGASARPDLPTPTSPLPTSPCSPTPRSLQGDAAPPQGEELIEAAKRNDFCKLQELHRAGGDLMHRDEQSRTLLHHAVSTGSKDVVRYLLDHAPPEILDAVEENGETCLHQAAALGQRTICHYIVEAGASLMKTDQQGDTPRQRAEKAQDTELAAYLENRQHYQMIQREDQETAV
Briefly: Biochemical DGK IC50 assay (ADP-Glo, lipid micelle substrate), DGKζ. Particulars: 0.5 nM enzyme, 140 μM ATP, 80 μM DAG, 1 hour preincubation, 1 hour reaction, room temperature, read-out: IC50s for DGKζ. As for the experimental part:
as §1, §2
Human His-TEV-DGK-zeta-pFastBac1 and human baculovirus samples was generated using the Bac-to-Bac baculovirus expression system (Invitrogen) according to the manufacturer's protocol. The DNA used for expression of DGK-zeta, have SEQ ID Nos: 1. Baculovirus amplification was achieved using infected SF9 cells at 1:2000 virus/cells ratios, and grown for 96 hours at 27° C. post-transfected.
The expression scaled up for each protein was carried out in the […] from CORNING. 4 L of 3×10^6 cells/mL Sf9 cells (Expression System, Invitrogen) grown in SF900™ II SFM insect medium (Expression System) was infected with virus stock at 1:200 virus/cells ratio, and grown for 48 hours at 27° C. post-transfection. The infected cell culture was harvested by centrifugation at 6000 rpm for 15 min 4° C. in a SORVALL LYNX6000 centrifuge. The cell pellets were stored at −80° C.
Full length human DGKζ produced as described above, was purified from Sf9 baculovirus-infected insect cell paste. The cells were lysed using sonication method, and the lysates were clarified by centrifugation.
Background: ADP-Glo turns the ADP formed in a reaction into a luminescent signal.

Molecules are shown by their SMILES. pIC50: −log10 of the molar value.

T1 sequence (P23743 whole entry): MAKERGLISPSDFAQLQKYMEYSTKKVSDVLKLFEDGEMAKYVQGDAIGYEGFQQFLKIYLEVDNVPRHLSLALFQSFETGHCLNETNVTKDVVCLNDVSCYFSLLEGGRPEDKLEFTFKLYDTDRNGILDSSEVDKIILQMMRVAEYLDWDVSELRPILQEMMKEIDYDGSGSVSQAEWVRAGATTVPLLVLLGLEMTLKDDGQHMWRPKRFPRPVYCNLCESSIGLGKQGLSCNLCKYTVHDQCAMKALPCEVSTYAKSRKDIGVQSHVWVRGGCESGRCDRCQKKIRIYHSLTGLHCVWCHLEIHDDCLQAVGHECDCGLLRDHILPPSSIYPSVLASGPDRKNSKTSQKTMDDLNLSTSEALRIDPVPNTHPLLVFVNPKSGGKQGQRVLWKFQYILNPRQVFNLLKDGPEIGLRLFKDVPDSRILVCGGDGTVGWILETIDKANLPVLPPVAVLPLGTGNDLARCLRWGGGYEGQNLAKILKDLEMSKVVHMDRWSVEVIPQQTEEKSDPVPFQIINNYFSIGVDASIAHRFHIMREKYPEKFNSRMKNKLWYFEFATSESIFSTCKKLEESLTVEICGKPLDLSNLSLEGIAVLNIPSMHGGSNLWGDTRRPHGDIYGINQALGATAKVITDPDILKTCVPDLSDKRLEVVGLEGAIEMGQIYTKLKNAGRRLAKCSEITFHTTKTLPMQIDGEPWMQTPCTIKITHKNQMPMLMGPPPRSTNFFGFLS

As to `CC(c1ccc2nccnc2c1)N1C[C@H](C)N(c2cc(=O)n(C)n3cc(CC#N)nc23)C[C@H]1C` (mixture of isomers) [Compound A1, 2-(8-((2S,5R)-2,5-dimethyl-4-(1-(quinoxalin-6-yl)ethyl)piperazin-1-yl)-5-methyl-6-oxo-5,6-dihydroimidazo[1,2-b]pyridazin-2-yl)acetonitrile], the pIC50 was 5.70 in experiment [1] and 7.11 in experiment [2].

For `CC(c1ccc2c(c1)OC(C)(C)CO2)N1C[C@H](C)N(c2c(F)c(=O)n(C)n3cc(CC#N)nc23)C[C@H]1C` (mixture of isomers) [Compound A26, 2-(8-((2S,5R)-4-(1-(3,3-dimethyl-2,3-dihydrobenzo[b][1,4]dioxin-6-yl)ethyl)-2,5-dimethylpiperazin-1-yl)-7-fluoro-5-methyl-6-oxo-5,6-dihydroimidazo[1,2-b]pyridazin-2-yl)acetonitrile], the figures for the pIC50 in experiment [1] and in experiment [2] were 5.51 and 7.80, respectively.

With `CC(c1ccc2c(c1)OC(C)(C)CO2)N1C[C@H](C)N(c2c(C#N)c(=O)n(C)n3cc(CC#N)nc23)C[C@H]1C` (mixture of isomers) [Compound A27, 2-(cyanomethyl)-8-((2S,5R)-4-(1-(3,3-dimethyl-2,3-dihydrobenzo[b][1,4]dioxin-6-yl)ethyl)-2,5-dimethylpiperazin-1-yl)-5-methyl-6-oxo-5,6-dihydroimidazo[1,2-b]pyridazine-7-carbonitrile], the pIC50 in experiment [1] is 6.07; in experiment [2], 8.00.

For the molecule `CC(c1ccc2nccnc2c1)N1C[C@H](C)N(c2cc(=O)n(C)n3cc(CC#N)nc23)C[C@H]1C` (single isomer, unassigned) [Compound A1a], the pIC50 in experiment [1] was 5.90; in experiment [2] it was 7.46.

Regarding `CC(c1ccc2nccnc2c1)N1C[C@H](C)N(c2cc(=O)n(C)n3cc(CC#N)nc23)C[C@H]1C` (single isomer, unassigned) [Compound A1b], the pIC50 in experiment [1] was 5.56; in experiment [2], under 5.00.

As to `Cc1cnc2ccc(C(C)N3C[C@H](C)N(c4cc(=O)n(C)n5cc(CC#N)nc45)C[C@H]3C)cc2n1` (single isomer, unassigned) [Compound A2a], the values for the pIC50 in experiment [1] and in experiment [2] were 4.57 and 5.13, respectively.

Take `Cc1cnc2ccc(C(C)N3C[C@H](C)N(c4cc(=O)n(C)n5cc(CC#N)nc45)C[C@H]3C)cc2n1` (single isomer, unassigned) [Compound A2b]: the pIC50 is 4.94 in experiment [1] and 7.96 in experiment [2].

`CC[C@H]1CN(C(C)c2ccc3nccnc3c2)[C@H](CC)CN1c1cc(=O)n(C)n2cc(COC)nc12` (single isomer, unassigned) [Compound A8a]: the results for the pIC50 in experiment [1] and in experiment [2] were 5.88 and 7.60, respectively.

Turning to `CC[C@H]1CN(C(C)c2ccc3nccnc3c2)[C@H](CC)CN1c1cc(=O)n(C)n2cc(COC)nc12` (single isomer, unassigned) [Compound A8b], the pIC50 in experiment [1] is 5.29; in experiment [2], 5.88.

On to `CC[C@@H]1CN(c2cc(=O)n(C)n3cc(C=NOC)nc23)[C@@H](C)CN1C(C)c1ccc2nccnc2c1` (single isomer, unassigned) [Compound A9a], for which the pIC50 in experiment [1] was 6.13; in experiment [2], 5.50.

With `CC[C@@H]1CN(c2cc(=O)n(C)n3cc(C=NOC)nc23)[C@@H](C)CN1C(C)c1ccc2nccnc2c1` (single isomer, unassigned) [Compound A9b], the results for the pIC50 in experiment [1] and in experiment [2] were 7.13 and 6.50, respectively.

As for `CC[C@@H]1CN(c2cc(=O)n(C)n3cc(C=NOC)nc23)[C@@H](C)CN1C(C)c1ccc2nccnc2c1` (single isomer, unassigned) [Compound A9c], the pIC50 is 5.66 in experiment [1] and under 5.00 in experiment [2].

On to `CC[C@@H]1CN(c2cc(=O)n(C)n3cc(C=NOC)nc23)[C@@H](C)CN1C(C)c1ccc2nccnc2c1` (single isomer, unassigned) [Compound A9d], for which the results for the pIC50 in experiment [1] and in experiment [2] were 6.68 and under 5.00, respectively.

Consider `CC[C@@H]1CN(c2cc(=O)n(C)n3cc(CC#N)nc23)[C@@H](C)CN1C(C)c1ccc2nccnc2c1` (single isomer, unassigned) [Compound A13a], for which the pIC50 in experiment [1] is 6.02; in experiment [2], 7.80.

`CC[C@@H]1CN(c2cc(=O)n(C)n3cc(CC#N)nc23)[C@@H](C)CN1C(C)c1ccc2nccnc2c1` (single isomer, unassigned) [Compound A13b]: the pIC50 in experiment [1] was 5.38; in experiment [2], 5.44.

Turning to `CC[C@H]1CN(C(C)c2ccc3nccnc3c2)[C@H](CC)CN1c1cc(=O)n(C)n2cc(CC#N)nc12` (single isomer, unassigned) [Compound A14a], the pIC50 was 6.66 in experiment [1] and 8.22 in experiment [2].

With `CC[C@H]1CN(C(C)c2ccc3nccnc3c2)[C@H](CC)CN1c1cc(=O)n(C)n2cc(CC#N)nc12` (single isomer, unassigned) [Compound A14b], the pIC50 in experiment [1] is 5.85; in experiment [2], 6.45.

Take `CC[C@@H]1CN(c2cc(=O)n(C)n3cc(COC)nc23)[C@@H](C)CN1C(C)c1ccc(C(F)(F)F)cc1F` (single isomer, unassigned) [Compound A16a]: the figures for the pIC50 in experiment [1] and in experiment [2] were 5.33 and 5.91, respectively.

With `CC[C@@H]1CN(c2cc(=O)n(C)n3cc(COC)nc23)[C@@H](C)CN1C(C)c1ccc(C(F)(F)F)cc1F` (single isomer, unassigned) [Compound A16b], the pIC50 in experiment [1] was 5.07; in experiment [2], under 5.00.

On to `CC[C@@H]1CN(c2cc(=O)n(C)n3cc(CC#N)nc23)[C@@H](C)CN1C(C)c1ccc(C(F)(F)F)cc1F` (single isomer, unassigned) [Compound A17a], for which the results for the pIC50 in experiment [1] and in experiment [2] were 6.77 and 6.97, respectively.

`CC[C@@H]1CN(c2cc(=O)n(C)n3cc(CC#N)nc23)[C@@H](C)CN1C(C)c1ccc(C(F)(F)F)cc1F` (single isomer, unassigned) [Compound A17b]: the pIC50 in experiment [1] is 6.08; in experiment [2] it was 5.33.

In the case of `CC(c1ccc2c(c1)OC(C)(C)CO2)N1C[C@H](C)N(c2c(F)c(=O)n(C)n3cc(CC#N)nc23)C[C@H]1C` (single isomer, unassigned) [Compound A26a], the pIC50 in experiment [1] was 5.54; in experiment [2], 7.72.

Take `CC(c1ccc2c(c1)OC(C)(C)CO2)N1C[C@H](C)N(c2c(F)c(=O)n(C)n3cc(CC#N)nc23)C[C@H]1C` (single isomer, unassigned) [Compound A26b]: the pIC50 was 5.68 in experiment [1] and 5.67 in experiment [2].

As to `CC[C@@H]1CN(c2cc(=O)n(C)n3cc(CC#N)nc23)[C@@H](C)CN1C(C)c1ccc2ncsc2n1` (single isomer, unassigned) [Compound A80a], in experiment [2], the pIC50 was 7.36.

As for `CC[C@@H]1CN(c2cc(=O)n(C)n3cc(CC#N)nc23)[C@@H](C)CN1C(C)c1ccc2ncsc2n1` (single isomer, unassigned) [Compound A80b], the pIC50 in experiment [2] was 5.09.

For `CC[C@H]1CN(C(C)c2ccc3ncsc3n2)[C@H](CC)CN1c1c(F)c(=O)n(C)n2cc(CC#N)nc12` (single isomer, unassigned) [Compound A81a], the pIC50 in experiment [2] is 5.90.

For the molecule `CC[C@H]1CN(C(C)c2ccc3ncsc3n2)[C@H](CC)CN1c1c(F)c(=O)n(C)n2cc(CC#N)nc12` (single isomer, unassigned) [Compound A81b], the pIC50 in experiment [2] was 7.49.
